For orientation: IC50 means the midpoint of a concentration-inhibition curve.

The structures appear in SMILES notation. Where a name gives a salt, the structure may show the parent alone.

One assay has as its target Bcl-2 (Homo sapiens (Human), UniProt P10415). The assay can be described thus: Bcl-2 competition binding (fluorescence polarization) assay. Conditions: fluorescein labeled BH3 peptide 15 nM, Bcl-2 protein 30 nM, 3 hours of incubation at room temperature. The gist of the method: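 Fluorescence polarization competition of 15 nM labeled 23-mer BH3 peptide with 30 nM purified Bcl-2, in 20 mM Hepes pH 7.0, 50 mM KCl, 5 mM MgCl2, 20 mM Na2MoO4, 0.1 mg/ml bovine gamma globulin, 0.01% NP40. Compounds 20 μM to 2 nM final; mP read after 3 h at room temperature, background-subtracted. IC50 from sigmoidal dose-response fit.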
In general terms: Polarisation of emitted light reports the rotation of a fluorescent probe.

Assay [1] relates to BCL-2-dependent acute lymphoblastic leukemia (ALL) cell line RS4; 11 with G101V mutation. The assay can be described thus: In vitro anti-proliferation assay (ATPlite) in RS4; 11 with G101V mutation. The format is cell-based. Particulars: about 72 hours incubation, medium with 5% FBS or 10% normal human serum, ATPlite luminescence. The method, then:
Cell antiproliferation was assayed by PerkinElmer ATPlite™ Luminescence Assay System. Briefly, the various test cancer cell lines were plated at a density of about 1×10^4 cells per well in Costar 96-well plates, and were incubated with different concentrations of compounds for about 72 hours in medium supplemented with 5% FBS or 10% normal human serum (NHS). One lyophilized substrate solution vial was then reconstituted by adding 5 mL of substrate buffer solution, and was agitated gently until the solution was homogeneous. About 50 μL of mammalian cell lysis solution was added to 100 μL of cell suspension per well of a microplate, and the plate was shaken for about five minutes in an orbital shaker at ˜700 rpm. This procedure was used to lyse the cells and to stabilize the ATP. Next, 50 μL substrate solution was added to the wells and microplate was shaken for five minutes in an orbital shaker at ˜700 rpm. Finally, the luminescence was measured by a PerkinElmer TopCount® Microplate Scintillation Counter. Such assays, carried out with a range of doses of test compounds, allowed the determination of the cellular anti-antiproliferative IC50 of the compounds of the present invention.
A general note: Cellular ATP, detected with luciferase, serves as a proxy for viable cell number.

Sequence of Bcl-2 (P10415 whole entry): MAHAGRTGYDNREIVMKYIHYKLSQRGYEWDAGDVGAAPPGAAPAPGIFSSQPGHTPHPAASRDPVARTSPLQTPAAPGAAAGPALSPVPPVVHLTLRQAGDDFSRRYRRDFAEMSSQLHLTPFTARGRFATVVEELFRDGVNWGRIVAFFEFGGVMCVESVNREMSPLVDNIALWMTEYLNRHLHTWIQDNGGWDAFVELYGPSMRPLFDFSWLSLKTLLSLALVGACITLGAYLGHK

As for `CC(C)(C)c1ccccc1[C@@H]1CCCN1C1CC2(CCN(c3ccc(C(=O)NS(=O)(=O)c4ccc(NCC5CCOCC5)c([N+](=O)[O-])c4)c(N4c5cc6cc[nH]c6nc5O[C@@H]5COC[C@H]54)c3)CC2)C1` [Example 46, 4-{2-[(2S)-2-(2-tert-butylphenyl)pyrrolidin-1-yl]-7-azaspiro[3.5]nonan-7-yl}-2-[(11R,15S)-13,16-dioxa-2,4,10-triazatetracyclo[7.7.0.0^{3,7}.0^{11,15}]hexadeca-1(9),2,5,7-tetraen-10-yl]-N-{3-nitro-4-[(oxan-4-ylmethyl)amino]benzenesulfonyl}benzamide], the half-inhibitory concentration (IC50) stood at 0.398 nM at Bcl-2 and 58.2 nM in assay [1].
For the compound `CC#Cc1ccccc1[C@@H]1CCCN1C1CC2(CCN(c3ccc(C(=O)NS(=O)(=O)c4ccc(NCC5CCOCC5)c([N+](=O)[O-])c4)c(N4c5cc6cc[nH]c6nc5O[C@@H]5COC[C@H]54)c3)CC2)C1` [Example 47, N-((3-nitro-4-(((tetrahydro-2H-pyran-4-yl)methyl)amino)phenyl)sulfonyl)-4-(2-((S)-2-(2-(prop-1-yn-1-yl)phenyl)pyrrolidin-1-yl)-7-azaspiro[3.5]nonan-7-yl)-2-((5aR,8aS)-5a,6,8,8a-tetrahydrofuro[3,4-b]pyrrolo[3′,2′:5,6]pyrido[3,2-e][1,4]oxazin-5(1H)-yl)benzamide], the half-maximal inhibitory concentration (IC50) at Bcl-2 amounted to 0.307 nM; in assay [1] (RS4-11), 288 nM.
As for `Cc1ccccc1[C@@H]1COCCN1C1CC2(CCN(c3ccc(C(=O)NS(=O)(=O)c4ccc(NCC5CCOCC5)c([N+](=O)[O-])c4)c(N4c5cc6cc[nH]c6nc5O[C@@H]5COC[C@H]54)c3)CC2)C1` [Example 50, N-((3-nitro-4-(((tetrahydro-2H-pyran-4-yl)methyl)amino)phenyl)sulfonyl)-2-((5aR,8aS)-5a,6,8,8a-tetrahydrofuro[3,4-b]pyrrolo[3′,2′:5,6]pyrido[3,2-e][1,4]oxazin-5(1H)-yl)-4-(2-((R)-3-(o-tolyl)morpholino)-7-azaspiro[3.5]nonan-7-yl)benzamide], the IC50 was 0.265 nM on Bcl-2 and 71.8 nM in assay [1] (RS4-11).
On to `Cc1ccccc1[C@H]1COCCN1C1CC2(CCN(c3ccc(C(=O)NS(=O)(=O)c4ccc(NCC5CCOCC5)c([N+](=O)[O-])c4)c(N4c5cc6cc[nH]c6nc5O[C@@H]5COC[C@H]54)c3)CC2)C1` [Example 51, N-((3-nitro-4-(((tetrahydro-2H-pyran-4-yl)methyl)amino)phenyl)sulfonyl)-2-((5aR,8aS)-5a,6,8,8a-tetrahydrofuro[3,4-b]pyrrolo[3′,2′:5,6]pyrido[3,2-e][1,4]oxazin-5(1H)-yl)-4-(2-((S)-3-(o-tolyl)morpholino)-7-azaspiro[3.5]nonan-7-yl)benzamide], for which the IC50 was 1.08 nM on Bcl-2 and 359 nM in assay [1] (RS4-11).
The like results for `CC(C)Oc1ccccc1[C@@H]1CCCN1C1CC2(CCN(c3ccc(C(=O)NS(=O)(=O)c4ccc(NCC5CCOCC5)c([N+](=O)[O-])c4)c(N4c5cc6cc[nH]c6nc5O[C@H]5COC[C@H]54)c3)CC2)C1` [Example 54, 4-(2-((S)-2-(2-isopropoxyphenyl)pyrrolidin-1-yl)-7-azaspiro[3.5]nonan-7-yl)-N-((3-nitro-4-(((tetrahydro-2H-pyran-4-yl)methyl)amino)phenyl)sulfonyl)-2-((5aR,8aR)-5a,6,8,8a-tetrahydrofuro[3,4-b]pyrrolo[3′,2′:5,6]pyrido[3,2-e][1,4]oxazin-5(1H)-yl)benzamide] were, in that order, 0.586 nM and over 1000 nM.
As for `CC(C)Oc1ccccc1[C@@H]1CCCN1C1CC2(CCN(c3ccc(C(=O)NS(=O)(=O)c4ccc(NCC5CCOCC5)c([N+](=O)[O-])c4)c(N4c5cc6cc[nH]c6nc5O[C@@H]5COC[C@@H]54)c3)CC2)C1` [Example 55, 4-(2-((S)-2-(2-isopropoxyphenyl)pyrrolidin-1-yl)-7-azaspiro[3.5]nonan-7-yl)-N-((3-nitro-4-(((tetrahydro-2H-pyran-4-yl)methyl)amino)phenyl)sulfonyl)-2-((5aS,8aS)-5a,6,8,8a-tetrahydrofuro[3,4-b]pyrrolo[3′,2′:5,6]pyrido[3,2-e][1,4]oxazin-5(1H)-yl)benzamide], the 50% inhibitory concentration (IC50) was determined as 0.608 nM on Bcl-2 and 392 nM in assay [1] (RS4-11).
Consider `CC(C)Oc1ccccc1[C@@H]1CCCN1C1CC2(CCN(c3ccc(C(=O)NS(=O)(=O)c4ccc(NCC5CCOCC5)c([N+](=O)[O-])c4)c(N4c5cc6cc[nH]c6nc5O[C@H]5CCOC[C@@H]54)c3)CC2)C1` [Example 58, 4-(2-((S)-2-(2-isopropoxyphenyl)pyrrolidin-1-yl)-7-azaspiro[3.5]nonan-7-yl)-N-((3-nitro-4-(((tetrahydro-2H-pyran-4-yl)methyl)amino)phenyl)sulfonyl)-2-((5aS,9aS)-5a,8,9,9a-tetrahydro-6H-pyrano[4,3-b]pyrrolo[3′,2′:5,6]pyrido[3,2-e][1,4]oxazin-5(1H)-yl)benzamide], for which the IC50 at Bcl-2 was 0.324 nM; in assay [1] (RS4-11), 188 nM.
As for `CC(C)Oc1ccccc1[C@@H]1CCCN1C1CC2(CCN(c3ccc(C(=O)NS(=O)(=O)c4ccc(NCC5CCOCC5)c([N+](=O)[O-])c4)c(N4c5cc6cc[nH]c6nc5O[C@@H]5CCOC[C@H]54)c3)CC2)C1` [Example 59, 4-(2-((S)-2-(2-isopropoxyphenyl)pyrrolidin-1-yl)-7-azaspiro[3.5]nonan-7-yl)-N-((3-nitro-4-(((tetrahydro-2H-pyran-4-yl)methyl)amino)phenyl)sulfonyl)-2-((5aR,9aR)-5a,8,9,9a-tetrahydro-6H-pyrano[4,3-b]pyrrolo[3′,2′:5,6]pyrido[3,2-e][1,4]oxazin-5(1H)-yl)benzamide], the half-maximal inhibitory concentration (IC50) at Bcl-2 was 0.101 nM; in assay [1] (RS4-11), 124 nM.
In the case of `CC(C)c1cc(F)ccc1[C@@H]1CCCN1C1CC2(CCN(c3ccc(C(=O)NS(=O)(=O)c4ccc(NCC5CCOCC5)c([N+](=O)[O-])c4)c(N4c5cc6cc[nH]c6nc5O[C@@H]5COC[C@H]54)c3)CC2)C1` [Example 60, 2-[(11R,15S)-13,16-dioxa-2,4,10-triazatetracyclo[7.7.0.0^{3,7}.0^{11,15}]hexadeca-1(9),2,5,7-tetraen-10-yl]-4-{2-[(2S)-2-(4-fluoro-2-isopropylphenyl)pyrrolidin-1-yl]-7-azaspiro[3.5]nonan-7-yl}-N-{3-nitro-4-[(oxan-4-ylmethyl)amino]benzenesulfonyl}benzamide], the figures for the IC50 (at Bcl-2; in assay [1]) were 0.341 nM and 62.4 nM, respectively.
For `Cc1ccccc1C1CC(C)(C)CN1C1CC2(CCN(c3ccc(C(=O)NS(=O)(=O)c4ccc(NCC5CCOCC5)c([N+](=O)[O-])c4)c(N4c5cc6cc[nH]c6nc5O[C@@H]5COC[C@H]54)c3)CC2)C1` (stereo partly drawn) [Example 61, 4-{2-[4,4-dimethyl-2-(2-methylphenyl)pyrrolidin-1-yl]-7-azaspiro[3.5]nonan-7-yl}-2-[(11R,15S)-13,16-dioxa-2,4,10-triazatetracyclo[7.7.0.0^{3,7}.0^{11,15}]hexadeca-1(9),2,5,7-tetraen. 10-yl]-N-{3-nitro-4-[(oxan-4-ylmethyl)amino]benzenesulfonyl}benzamide], the IC50 on Bcl-2 was 0.707 nM; in assay [1], 130 nM.
With `CC(C)Oc1ccccc1[C@@H]1CCCN1C1CC2(CCN(c3ccc(C(=O)NS(=O)(=O)c4ccc(NCC5CCOCC5)c([N+](=O)[O-])c4)c(N4c5cc6cc[nH]c6nc5O[C@H]5COCC[C@@H]54)c3)CC2)C1` [Example 62, 4-(2-((S)-2-(2-isopropoxyphenyl)pyrrolidin-1-yl)-7-azaspiro[3.5]nonan-7-yl)-N-((3-nitro-4-(((tetrahydro-2H-pyran-4-yl)methyl)amino)phenyl)sulfonyl)-2-((5aS,9aR)-6,7,9,9a-tetrahydro. 1H-pyrano[3,4-b]pyrrolo[3′,2′:5,6]pyrido[3,2-e][1,4]oxazin-5(5aH)-yl)benzamide hydrochloride], the values for the IC50 (on Bcl-2; in assay [1]) were 0.41 nM and 121 nM, respectively.
Take `CC(C)c1ccsc1[C@@H]1CCCN1C1CC2(CCN(c3ccc(C(=O)NS(=O)(=O)c4ccc(NCC5CCOCC5)c([N+](=O)[O-])c4)c(N4c5cc6cc[nH]c6nc5O[C@@H]5COC[C@H]54)c3)CC2)C1` [Example 63, 4-(2-((S)-2-(3-isopropylthiophen-2-yl)pyrrolidin-1-yl)-7-azaspiro[3.5]nonan-7-yl)-N-((3-nitro-4-(((tetrahydro-2H-pyran-4-yl)methyl)amino)phenyl)sulfonyl)-2-((5aR,8aS)-5a,6,8,8a-tetrahydrofuro[3,4-b]pyrrolo[3′,2′:5,6]pyrido[3,2-e][1,4]oxazin-5(1H)-yl)benzamide hydrochloride]: the results for the 50% inhibitory concentration (IC50) (on Bcl-2; in assay [1] (RS4-11)) were 0.314 nM and 49.6 nM, respectively.
As for `CC(C)Oc1ccccc1[C@@H]1CCCN1C1CC2(CCN(c3ccc(C(=O)NS(=O)(=O)c4ccc(NCC5CCOCC5)c([N+](=O)[O-])c4)c(N4c5cc6cc[nH]c6nc5O[C@H]5COCC[C@H]54)c3)CC2)C1` [Example 64, 2-[(3R,8R)-2,5-dioxa-9,15,17-triazatetracyclo[8.7.0.0^{3,8}.0^{12,16}]heptadeca-1(10),11,13,16-tetraen-9-yl]-4-{2-[(2S)-2-(2-isopropoxyphenyl)pyrrolidin-1-yl]-7-azaspiro[3.5]nonan-7-yl}-N-{3-nitro-4-[(oxan-4-ylmethyl)amino]benzenesulfonyl}benzamide], the IC50 at Bcl-2 came to 0.341 nM; in assay [1], 62.4 nM.

The values are drawn from patent US20240166646A1, “1H-PYRROLO[2,3-B]PYRIDINE DERIVATIVES AS BCL-2 INHIBITORS FOR THE TREATMENT OF NEOPLASTIC AND AUTOIMMUNE DISEASES” (Newave Pharmaceutical Inc., priority 2020, published 2024).
